Where two headings read alike, the source gives them in different places.
Test system: 134 cancer cell lines
Assay: Cell viability assay (ATPlite, 72 hours), IC50 on cancer cell line panel

## Cc1nc(NC(=O)N2CCC[C@H]2C(N)=O)sc1-c1ccnc(C(C)(C)C(F)(F)F)c1 [alpelisib]
Homo sapiens, MOLM-13, read-out: IC50 in cell proliferation assay, MOLM-13 cell line (FLT3 ITD)
  IC50: 3.48 µM
Homo sapiens, MOLT-4, read-out: IC50 in cell proliferation assay, MOLT-4 cell line
  IC50: 0.701 µM
Homo sapiens, MV4-11, read-out: IC50 in cell proliferation assay, MV4-11 cell line (FLT3 ITD)
  IC50: 10.5 µM
Homo sapiens, MeWo, read-out: IC50 in cell proliferation assay, MeWo cell line
  IC50: > 31.6 µM
Homo sapiens, NCCIT, read-out: IC50 in cell proliferation assay, NCC-IT cell line
  IC50: 8.35 µM
Homo sapiens, NCI-H82, read-out: IC50 in cell proliferation assay, cell line NCI-H82
  IC50: 11.1 µM
Homo sapiens, NCI-H460, read-out: IC50 in cell proliferation assay, NCI-H460 cell line
  IC50: 7.11 µM
Homo sapiens, NCI-H661, read-out: IC50 in cell proliferation assay, NCI-H661 cell line
  IC50: 9.63 µM
Homo sapiens, NCI-H716, read-out: IC50 in cell proliferation assay, cell line NCI-H716 (FGFR2-COL14A1)
  IC50: 0.049 µM
Homo sapiens, NCI-H1650, read-out: IC50 in cell proliferation assay, NCI-H1650 cell line (EGFR exon19del)
  IC50: 18.1 µM
Homo sapiens, NCI-H1975, read-out: IC50 in cell proliferation assay, NCI-H1975 cell line (EGFR p.L858R + p.T790M)
  IC50: 1.49 µM
Homo sapiens, NCI-H2228, read-out: IC50 in cell proliferation assay, NCI-H2228 cell line (EML4-ALK)
  IC50: 4.04 µM
Homo sapiens, OVCAR-3, read-out: IC50 in cell proliferation assay, cell line OVCAR-3
  IC50: 6.11 µM
Homo sapiens, PFSK-1, read-out: IC50 in cell proliferation assay, cell line PFSK-1
  IC50: 0.52 µM
Homo sapiens, RL95-2, read-out: IC50 in cell proliferation assay, cell line RL95-2 (EGFR p.A289V)
  IC50: 18.3 µM
Homo sapiens, RPMI-7951, read-out: IC50 in cell proliferation assay, cell line RPMI-7951 (BRAF p.V600E)
  IC50: 10.1 µM
Homo sapiens, RS4-11, read-out: IC50 in cell proliferation assay, cell line RS4;11
  IC50: 4.25 µM
Homo sapiens, Rec1, read-out: IC50 in cell proliferation assay, cell line REC-1
  IC50: 3.14 µM
Homo sapiens, SHP77, read-out: IC50 in cell proliferation assay, cell line SHP-77
  IC50: > 31.6 µM
Homo sapiens, SK-BR-3, read-out: IC50 in cell proliferation assay, cell line SK-BR-3 (ERBB2 amplification)
  IC50: 0.676 µM
Homo sapiens, SK-N-AS, read-out: IC50 in cell proliferation assay, cell line SK-N-AS
  IC50: 0.065 µM
Homo sapiens, SK-N-FI, read-out: IC50 in cell proliferation assay, cell line SK-N-FI
  IC50: 3.1 µM
Homo sapiens, SK-N-MC, read-out: IC50 in cell proliferation assay, cell line SK-N-MC
  IC50: 2.6 µM
Homo sapiens, SK-N-SH, read-out: IC50 in cell proliferation assay, cell line SK-N-SH (ALK p.F1174L)
  IC50: 0.42 µM
Homo sapiens, SNU-5, read-out: IC50 in cell proliferation assay, cell line SNU-5 (MET amplification)
  IC50: 13.9 µM
Homo sapiens, SNU-16, read-out: IC50 in cell proliferation assay, cell line SNU-16 (FGFR2 amplification)
  IC50: > 31.6 µM
Homo sapiens, SNU-C2B, read-out: IC50 in cell proliferation assay, cell line SNU-C2B (EGFR p.R165Q)
  IC50: 7.04 µM
Homo sapiens, SU-DHL-1, read-out: IC50 in cell proliferation assay, cell line SU-DHL-1 (NPM1-ALK)
  IC50: 21.2 µM
Homo sapiens, SU-DHL-6, read-out: IC50 in cell proliferation assay, cell line SU-DHL-6
  IC50: 1.55 µM
Homo sapiens, SUP-T1, read-out: IC50 in cell proliferation assay, cell line SUP-T1
  IC50: 6.02 µM
Homo sapiens, SW48, read-out: IC50 in cell proliferation assay, cell line SW48 (EGFR p.G719S)
  IC50: 1.15 µM
Homo sapiens, SW480, read-out: IC50 in cell proliferation assay, cell line SW480
  IC50: 8.85 µM
Homo sapiens, SW626, read-out: IC50 in cell proliferation assay, cell line SW626
  IC50: 8.63 µM
Homo sapiens, SW780, read-out: IC50 in cell proliferation assay, cell line SW780 (FGFR3-BAIAP2L1)
  IC50: 9.85 µM
Homo sapiens, SW837, read-out: IC50 in cell proliferation assay, cell line SW837
  IC50: 21.9 µM
Homo sapiens, SW872, read-out: IC50 in cell proliferation assay, cell line SW872 (BRAF p.V600E)
  IC50: 18.8 µM
Homo sapiens, SW900, read-out: IC50 in cell proliferation assay, cell line SW900
  IC50: 4.43 µM
Homo sapiens, SW948, read-out: IC50 in cell proliferation assay, cell line SW948
  IC50: 3.3 µM
Homo sapiens, SW982, read-out: IC50 in cell proliferation assay, cell line SW982 (BRAF p.V600E)
  IC50: 22.6 µM
Homo sapiens, SW-620, read-out: IC50 in cell proliferation assay, cell line SW620
  IC50: 6.94 µM
Homo sapiens, T98G, read-out: IC50 in cell proliferation assay, cell line T98G
  IC50: 7.14 µM
Homo sapiens, TCC-SUP, read-out: IC50 in cell proliferation assay, cell line TCCSUP
  IC50: 1.1 µM
Homo sapiens, THP-1, read-out: IC50 in cell proliferation assay, cell line THP-1
  IC50: 0.117 µM
Homo sapiens, U2OS, read-out: IC50 in cell proliferation assay, cell line U2OS
  IC50: 19.3 µM
Homo sapiens, U-87 MG, read-out: IC50 in cell proliferation assay, cell line U-87MG ATCC
  IC50: 17.5 µM
Homo sapiens, U-118-MG, read-out: IC50 in cell proliferation assay, cell line U-118MG
  IC50: 16.6 µM
Homo sapiens, UMUC3, read-out: IC50 in cell proliferation assay, cell line UM-UC-3
  IC50: 17.1 µM
Hs766T, read-out: IC50 in cell proliferation assay, Hs 766T cell line
  IC50: 7.45 µM
L-82, read-out: IC50 in cell proliferation assay, L-82 cell line (NPM1-ALK)
  IC50: 20.5 µM
Rh30, read-out: IC50 in cell proliferation assay, cell line Rh30
  IC50: 3.91 µM
read-out: IC50 in cell proliferation assay, 11-18 cell line (EGFR p.L858R)
  IC50: 15.5 µM
read-out: IC50 in cell proliferation assay, Hs 852.T cell line
  IC50: 5.79 µM
read-out: IC50 in cell proliferation assay, JAR cell line
  IC50: 23.2 µM
read-out: IC50 in cell proliferation assay, cell line 5637
  IC50: 12.8 µM
read-out: IC50 in cell proliferation assay, cell line A-388
  IC50: 2.91 µM
read-out: IC50 in cell proliferation assay, cell line DB
  IC50: 23 µM
read-out: IC50 in cell proliferation assay, cell line DEL (NPM1-ALK)
  IC50: 27.8 µM
read-out: IC50 in cell proliferation assay, cell line ES-2 (BRAF p.V600E)
  IC50: > 31.6 µM
read-out: IC50 in cell proliferation assay, cell line PA-1
  IC50: 17.6 µM
read-out: IC50 in cell proliferation assay, cell line PC-3
  IC50: 22.7 µM
read-out: IC50 in cell proliferation assay, cell line RD
  IC50: 1.15 µM
read-out: IC50 in cell proliferation assay, cell line RKO (BRAF p.V600E)
  IC50: 11 µM
read-out: IC50 in cell proliferation assay, cell line RL
  IC50: 18.9 µM
read-out: IC50 in cell proliferation assay, cell line RT-4 (FGFR3-TACC3)
  IC50: 0.12 µM
read-out: IC50 in cell proliferation assay, cell line SR (NPM1-ALK)
  IC50: 10.9 µM
read-out: IC50 in cell proliferation assay, cell line T24
  IC50: 1.08 µM
read-out: IC50 in cell proliferation assay, cell line TT (RET p.C634W)
  IC50: > 31.6 µM
read-out: IC50 in cell proliferation assay, cell line VA-ES-BJ
  IC50: 5.92 µM

— PMC9516332 (Frontiers in Oncology, 2022)
